Tests used:
Design in all cases: agar dilution MIC, growth inhibition of clinical Burkholderia isolates
B. ambifaria AU11161 = tested on: T1, B. ambifaria AU11161; experiment: microbe, parasite or virus in culture; settings: Burkholderia ambifaria, AU11161
T1 construct: AU11161
Text: (§1) We evaluated the activity of cefepime-taniborbactam against a panel of 140 Bcc clinical isolates (i.e., species ambifaria, arboris, cenocepacia, cepacia, contaminans, diffusa, dolosa, multivorans, pseudomultivorans, pyrrocinia, seminalis, stabilis, ubonensis, and vietnamiensis) and 10 B. gladioli from the Burkholderia cepacia Research Laboratory and Repository (University of Michigan) ([22], [25], [31]) (Supplementary Material, Tables S1 and S2). K. pneumoniae ATCC 700603 carrying bla SHV-18 and K. pneumoniae ATCC BAA-1705 harboring bla KPC strains were used as controls for β-lactam and β-lactamase inhibitor integrity; all controls tested within the anticipated quality control ranges (Table S3). Minimum inhibitory concentration (MIC) results were interpreted using Clinical Laboratory Standards Institute (CLSI) breakpoints, where available ([32]). […] An alternative cefepime-taniborbactam provisional susceptible breakpoint of ≤16 µg/mL is supported by in vivo efficacy data from neutropenic murine infection models (thigh, complicated urinary tract, and lung) ([15] [–] [17]) and data from safety and pharmacokinetics studies in human volunteers ([33], [34]). The cefepime-taniborbactam antimicrobial activity was compared to cefepime, meropenem, meropenem-vaborbactam, and levofloxacin, to data published for first-line agents (e.g., ceftazidime and trimethoprim-sulfamethoxazole) and to those recommended by the CLSI for clinical testing (e.g., minocycline) against the Bcc and B. gladioli panel ([22], [32]). Of note, the MICs of all these agents were determined by the agar dilution method, which alongside broth microdilution, are recommended by the CLSI to assess the antimicrobial susceptibility of Bcc isolates ([32]).

B. ambifaria AU20319 = tested on: T2, B. ambifaria AU20319; experiment: microbe, parasite or virus in culture; settings: Burkholderia ambifaria, AU20319
T2 construct: AU20319
Text: as §1

B. cenocepacia AU0133 = tested on: T3, B. cenocepacia AU0133; experiment: microbe, parasite or virus in culture; settings: Burkholderia cenocepacia, AU0133
T3 construct: AU0133
Text: as §1

B. cenocepacia AU12571 = tested on: T4, B. cenocepacia AU12571; experiment: microbe, parasite or virus in culture; settings: Burkholderia cenocepacia, AU12571
T4 construct: AU12571
Text: as §1

B. cenocepacia AU16448 = tested on: T5, B. cenocepacia AU16448; experiment: microbe, parasite or virus in culture; settings: Burkholderia cenocepacia, AU16448
T5 construct: AU16448
Text: as §1

B. cenocepacia AU20545 = tested on: T6, B. cenocepacia AU20545; experiment: microbe, parasite or virus in culture; settings: Burkholderia cenocepacia, AU20545
T6 construct: AU20545
Text: as §1

B. cenocepacia AU22509 = tested on: T7, B. cenocepacia AU22509; experiment: microbe, parasite or virus in culture; settings: Burkholderia cenocepacia, AU22509
T7 construct: AU22509
Text: as §1

B. cepacia AU17630 = tested on: T8, B. cepacia AU17630; experiment: microbe, parasite or virus in culture; settings: Burkholderia cepacia, AU17630
T8 construct: AU17630
Text: as §1

B. contaminans AU20979 = tested on: T9, B. contaminans AU20979; experiment: organism not typed
T9 construct: AU20979
Text: as §1

B. multivorans AU14364 = tested on: T10, B. multivorans AU14364; experiment: microbe, parasite or virus in culture; settings: Burkholderia multivorans, AU14364
T10 construct: AU14364
Text: as §1

B. multivorans AU18096 = tested on: T11, B. multivorans AU18096; experiment: microbe, parasite or virus in culture; settings: Burkholderia multivorans, AU18096
T11 construct: AU18096
Text: as §1

B. multivorans AU20929 = tested on: T12, B. multivorans AU20929; experiment: microbe, parasite or virus in culture; settings: Burkholderia multivorans, AU20929
T12 construct: AU20929
Text: as §1

B. multivorans AU21015 = tested on: T13, B. multivorans AU21015; experiment: microbe, parasite or virus in culture; settings: Burkholderia multivorans, AU21015
T13 construct: AU21015
Text: as §1

B. multivorans AU22436 = tested on: T14, B. multivorans AU22436; experiment: microbe, parasite or virus in culture; settings: Burkholderia multivorans, AU22436
T14 construct: AU22436
Text: as §1

B. multivorans AU22892 = tested on: T15, B. multivorans AU22892; experiment: microbe, parasite or virus in culture; settings: Burkholderia multivorans, AU22892
T15 construct: AU22892
Text: as §1

B. multivorans AU27706 = tested on: T16, B. multivorans AU27706; experiment: microbe, parasite or virus in culture; settings: Burkholderia multivorans, AU27706
T16 construct: AU27706
Text: as §1

B. multivorans AU29198 = tested on: T17, B. multivorans AU29198; experiment: microbe, parasite or virus in culture; settings: Burkholderia multivorans, AU29198
T17 construct: AU29198
Text: as §1

B. multivorans AU30441 = tested on: T18, B. multivorans AU30441; experiment: microbe, parasite or virus in culture; settings: Burkholderia multivorans, AU30441
T18 construct: AU30441
Text: as §1

B. ubonensis AU7314 = tested on: T19, B. ubonensis AU7314; experiment: organism not typed
T19 construct: AU7314
Text: as §1

B. vietnamiensis AU21549 = tested on: T20, B. vietnamiensis AU21549; experiment: microbe, parasite or virus in culture; settings: Burkholderia vietnamiensis, AU21549
T20 construct: AU21549
Text: as §1

B. vietnamiensis AU26096 = tested on: T21, B. vietnamiensis AU26096; experiment: microbe, parasite or virus in culture; settings: Burkholderia vietnamiensis, AU26096
T21 construct: AU26096
Text: as §1

[1] = tested on: T22, Burkholderia cepacia complex Bcc Indeterminate AU14915; experiment: microbe, parasite or virus in culture; settings: Burkholderia cepacia
T22 construct: AU14915
Text: as §1

Measured: MIC

C[C@H]1COc2c(N3CCN(C)CC3)c(F)cc3c(=O)c(C(=O)O)cn1c23 [levofloxacin]
4 µg/mL: B. cenocepacia AU0133 | B. cepacia AU17630 | B. multivorans AU18096 | B. multivorans AU20929 | B. ubonensis AU7314 | B. vietnamiensis AU21549
8 µg/mL: B. cenocepacia AU12571 | B. cenocepacia AU16448 | B. multivorans AU29198
32 µg/mL: B. ambifaria AU11161 | B. cenocepacia AU22509 | B. contaminans AU20979 | B. multivorans AU14364 | B. multivorans AU21015
16 µg/mL: [1]
1 µg/mL: B. ambifaria AU20319 | B. multivorans AU27706
> 32 µg/mL: B. multivorans AU22436 | B. vietnamiensis AU26096
2 µg/mL: B. cenocepacia AU20545 | B. multivorans AU22892 | B. multivorans AU30441

CO/N=C(\C(=O)N[C@@H]1C(=O)N2C(C(=O)[O-])=C(C[N+]3(C)CCCC3)CS[C@H]12)c1csc(N)n1 [cefepime]
2 µg/mL: B. multivorans AU18096 | B. multivorans AU22892 | B. multivorans AU30441 | B. vietnamiensis AU21549
32 µg/mL: B. vietnamiensis AU26096
1 µg/mL: B. multivorans AU27706
8 µg/mL: B. cenocepacia AU20545 | B. multivorans AU20929 | B. multivorans AU22436
16 µg/mL: B. cenocepacia AU0133 | B. cenocepacia AU12571 | B. cenocepacia AU16448
> 32 µg/mL: B. ambifaria AU11161 | B. ambifaria AU20319 | B. cenocepacia AU22509 | B. cepacia AU17630 | B. contaminans AU20979 | B. multivorans AU14364 | B. multivorans AU21015 | B. multivorans AU29198 | B. ubonensis AU7314 | [1]

C[C@@H](O)[C@H]1C(=O)N2C(C(=O)O)=C(S[C@@H]3CN[C@H](C(=O)N(C)C)C3)[C@H](C)[C@H]12 [meropenem]
4 µg/mL: B. ambifaria AU20319 | B. cenocepacia AU0133 | B. cenocepacia AU16448 | B. cepacia AU17630 | B. multivorans AU14364 | B. multivorans AU22892
1 µg/mL: B. multivorans AU18096
8 µg/mL: B. ambifaria AU11161 | B. cenocepacia AU22509 | B. contaminans AU20979 | B. multivorans AU20929 | B. multivorans AU22436 | B. multivorans AU30441 | B. vietnamiensis AU26096
16 µg/mL: B. multivorans AU21015 | B. multivorans AU29198 | [1]
2 µg/mL: B. cenocepacia AU12571 | B. cenocepacia AU20545
0.5 µg/mL: B. multivorans AU27706 | B. vietnamiensis AU21549
32 µg/mL: B. ubonensis AU7314

— PMC10648927, “Examining the activity of cefepime-taniborbactam against Burkholderia cepacia complex and Burkholderia gladioli isolated from cystic fibrosis patients in the United States” (Antimicrobial Agents and Chemotherapy, 2023)
